Results taken from ChEMBL document CHEMBL1126354, “Structural analysis of 2-aryl-1,3-dione compounds as inhibitors of 5-lipoxygenase” (Bioorg Med Chem Lett, 1992).

Target: T1, Polyunsaturated fatty acid 5-lipoxygenase (Rattus norvegicus) (UniProt P12527)
T1 sequence (whole entry): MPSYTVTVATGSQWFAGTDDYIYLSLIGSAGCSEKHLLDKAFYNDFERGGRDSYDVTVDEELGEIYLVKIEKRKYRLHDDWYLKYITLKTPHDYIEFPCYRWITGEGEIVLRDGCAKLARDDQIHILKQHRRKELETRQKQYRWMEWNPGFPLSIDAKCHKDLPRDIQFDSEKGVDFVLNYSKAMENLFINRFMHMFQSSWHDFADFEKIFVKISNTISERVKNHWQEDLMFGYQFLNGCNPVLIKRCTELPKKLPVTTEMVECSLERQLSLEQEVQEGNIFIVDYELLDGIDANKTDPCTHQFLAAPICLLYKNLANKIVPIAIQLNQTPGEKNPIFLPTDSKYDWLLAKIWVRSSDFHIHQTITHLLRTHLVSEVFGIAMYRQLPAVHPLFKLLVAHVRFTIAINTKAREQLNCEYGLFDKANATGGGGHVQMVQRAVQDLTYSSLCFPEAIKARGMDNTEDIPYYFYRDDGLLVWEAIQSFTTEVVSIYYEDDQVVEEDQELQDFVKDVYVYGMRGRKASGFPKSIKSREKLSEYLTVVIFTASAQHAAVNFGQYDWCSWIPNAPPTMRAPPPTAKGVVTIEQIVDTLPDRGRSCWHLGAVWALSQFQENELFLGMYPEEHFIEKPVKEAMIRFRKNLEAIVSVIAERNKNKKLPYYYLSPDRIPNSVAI
Test: The compound was evaluated in vitro for inhibition of 5-lipoxygenase activity in RBL-1 cells at 20 uM; call rule not given here
Format: cell-based

| inhibition | Compound |
| --- | --- |
| 50% | O=C1c2ccccc2-c2ccccc2C(=O)C1c1ccccc1 |

Target: T2, Polyunsaturated fatty acid 5-lipoxygenase (Rattus norvegicus, UniProt P12527)
T2 sequence (P12527 whole entry): T1 sequence (whole entry)
Test: The compound was evaluated in vitro for inhibition of 5-lipoxygenase activity in RBL-1 cells.
Format: cell-based

| IC50 | Compound |
| --- | --- |
| 28 µM | O=C1c2ccccc2C(=O)C1C1C(=O)c2ccccc2C1=O |

Target: T2, Polyunsaturated fatty acid 5-lipoxygenase
Test: In vitro inhibition of 5-lipoxygenase activity in RBL-1 cells.
Format: cell-based

| IC50 | Compound |
| --- | --- |
| 9.6 µM | O=C1c2ccccc2C(=O)C1c1ccc(F)cc1 [FLUINDIONE] |
| 25 µM | O=C1CCCCC(=O)C1c1ccc2c(c1)OCO2 |
| 12 µM | CCCCc1ccc(C2C(=O)CCCCCC2=O)cc1 |
| 41 µM | O=C1CCCCC(=O)C1c1ccccc1 |
| 15 µM | O=C1c2ccccc2C(=O)C1c1ccccc1 [PHENINDIONE] |
| 5 µM | O=C1c2ccccc2C(=O)C1c1ccc(Cl)cc1 [CLORINDIONE] |
| 4.5 µM | CN(C)c1ccc(C2C(=O)c3ccccc3C2=O)cc1 |
| 2.7 µM | CSc1ccc(C2C(=O)c3ccccc3C2=O)cc1 |
| 9.1 µM | COc1ccc(C2C(=O)c3ccccc3C2=O)cc1 [ANISINDIONE] |
| 2.3 µM | O=C1c2ccc(Br)cc2C(=O)C1(F)c1ccccc1 (stereo not drawn) |
| 15 µM | CSC1(c2ccccc2)C(=O)c2ccccc2C1=O |
| 2 µM | O=C1c2ccccc2C(=O)C1(F)c1ccc2ccccc2c1 |
| 3.2 µM | O=C1c2ccccc2C(=O)C1c1ccc2ccccc2c1 |

| Compound | IC50 |
| --- | --- |
| O=C1c2ccccc2C(=O)C1(Sc1ccccc1)c1ccccc1 | 4.8 µM |
| CCCCc1ccc(C2C(=O)c3ccccc3C2=O)cc1 | 1.7 µM |
| CC(C)(C)c1cc(C2C(=O)c3ccccc3C2=O)cc(C(C)(C)C)c1 | 2.8 µM |
| O=C1c2ccccc2C(=O)C1(F)c1ccccc1 | 1.7 µM |

Target: T1, Polyunsaturated fatty acid 5-lipoxygenase (Rattus norvegicus)
Test: The compound was evaluated in vitro for inhibition of 5-lipoxygenase activity in RBL-1 cells at 100 uM
Format: cell-based

| inhibition | Compound |
| --- | --- |
| 45% | O=C1CCCCCC(=O)C1c1ccccc1 |

Target: T2, Polyunsaturated fatty acid 5-lipoxygenase
Test: In vitro for inhibition of 5-lipoxygenase activity in RBL-1 cells.
Format: cell-based

| IC50 | Compound |
| --- | --- |
| Not Active | O=C1C(=Cc2ccccc2)C(=O)c2ccccc21 |
| Not Active | C=CCC1C(=O)c2ccccc2C1=O |
| Not Active | O=C1c2ccccc2[C@@H](O)[C@H]1c1ccccc1 |
| Not Active | O=C1C(c2ccccc2)C(=O)C2CC=CCC12 (stereo not drawn) |
| Not Active | O=C1c2ccccc2C(=O)N1c1ccccc1 [N-PHENYL-PHTHALIMIDE] |
| Not Active | COC1=C(c2ccccc2)C(=O)c2ccccc21 |
| Not Active | O=C1CC(=O)c2ccccc21 |
| Not Active | O=C1c2cccc3cccc(c23)C(=O)C1c1ccccc1 |
| Not Active | O=C1CCCC(=O)C1c1ccccc1 |
| Not Active | COc1ccc(C=C2C(=O)c3ccccc3C2=O)cc1 |
| Not Active | O=C1CCC(=O)C1c1ccccc1 |
| Not Active | O=C(c1ccccc1)C(C(=O)c1ccccc1)c1ccccc1 |
| Not Active | O=C1c2ccccc2C(=O)C1[N+](=O)[O-] |
| Not Active | O=C1c2ccccc2C(=O)C1(c1ccccc1)C1(c2ccccc2)C(=O)c2ccccc2C1=O |
| Not Active | O=C1c2ccccc2[C@H](O)[C@H]1c1ccccc1 |

Target: T1, Polyunsaturated fatty acid 5-lipoxygenase (Rattus norvegicus)
Test: The compound was evaluated in vitro for inhibition of 5-lipoxygenase activity in RBL-1 cells at 30 uM
Format: cell-based

| inhibition | Compound |
| --- | --- |
| 45% | O=C1C(c2ccccc2)=C(c2ccccc2)C(=O)C1c1ccccc1 |
| 14% | O=C1c2ccccc2C(=O)C1c1cccc2ccccc12 |

Target: T2, Polyunsaturated fatty acid 5-lipoxygenase
Test: The compound was evaluated in vitro for inhibition of 5-lipoxygenase activity in RBL-1 cells; No significant inhibitory activity up to 30 uM
Format: cell-based

| IC50 | Compound |
| --- | --- |
| Not Active | O=C(O)c1ccc(C2C(=O)c3ccccc3C2=O)cc1 |
